Source: PMC9666555, “Genuine selective caspase-2 inhibition with new irreversible small peptidomimetics” (Cell Death & Disease, 2022)
Non-standard residues stand in square brackets, D forms with d. Residues, ends and D or L forms follow the SMILES beside them. ξ: configuration not given here. *: point of attachment. ξTHIQ1CO(6-Me) = Cc1ccc2c(c1)CCNC2C(=O)O; X1 = O=C(O)CC(N*)C(=O)COc1c(F)cccc1F; Quinaldoyl = O=C(c1ccc2ccccc2n1)*

Key:
[1] = tested on: Molt4 lymphoid human cells; assay: Panobistat (LBH589)-induced cell death in Molt4 cells (propidium iodide, flow cytometry); type: cell-based; conditions: Molt4, 1 h pretreatment (30 µM or indicated doses), 25 nM LBH589 24 h
Procedure: HeLa cells (obtained from ATCC) were cultured in Dulbecco’s Modified Eagle Medium (DMEM, High Glucose, GlutaMAX™, Pyruvate) supplemented with antibiotics and 10% fetal calf serum (FCS) (Gibco, Life Technologies) and maintained in T75 Flasks at 1 × 10^6 cells per flask. Twenty-four hours before treatments, HeLa cells were transferred to 6-well plates (8 × 10^4 cells/well). The lymphoblastoid cell line Molt4cl8 was a gift from Dr. Bernard Krust (Inserm, University Paris 5) and was cultured in RPMI 1640 Glutamax medium supplemented with Hepes, antibiotics, and 10% FCS. HEK293 cells were obtained from ATCC (CRL-1573) and cultured in DMEM with Glutamax and 25 mM glucose (Life Technologies) supplemented with 10% FCS and antibiotics. For cell death induction, the following agents were added to cell cultures: Vincristine (Sigma) and Panobistat (LBH589; Selleck). Cell death was analyzed using fluorescence microscopy (Axio-observer Z1, Zeiss; equipped with CCD camera CoolsnapHQ2, Ropert Scientific) and cytofluorometry (MACSQuant® VYB; Miltenyi Biotec, Bergisch Gladbach, Germany) after labeling with propidium iodide (1 µg/mL; 10 min; 37 °C; Life Technologies) and Hoechst 33342 (1 µg/mL; 5 min; RT; Sigma).
Fig. 5 LJ2 inhibits cell death induced by microtubule destabilization and hydroxamic acid-based deacetylase (HDAC) inhibition. a Effect of the irreversible Caspase-2 inhibitors LJ2 against vincristine-induced cell death. HeLa cells were pretreated for 1 h with the indicated doses of LJ2, Q-VD-OPh, or Q-LETD-OPh, then treated with vincristine (VCR) as in Fig. 2, then incubated with propidium iodide at 2 μg/mL for 10 min and analyzed by flow cytometry. […] Molt4 lymphoid human cells where were pretreated for 1 h with 30 µM of LJ2, Q-VD-OPh, or Belnacasan (VX-765), then treated for 24 h with 25 nM of LBH589, then incubated with propidium iodide as in (a) and analyzed by flow cytometry. […] Molt4 cells were treated as in (b) with the indicated doses of LJ2 or Q-VD-OPh and analyzed by flow cytometry. […]

[2] = tested on: Casp2-mediated Mdm-2 cleavage in H9 hESC-derived NPCs; assay: Reversine-induced Mdm-2 cleavage in neural progenitor cells (WB); type: cell-based, human; conditions: 1 µM reversine 24 h
Procedure: The H9 human embryonic stem cell (hESC) line (WA09, WiCell) was maintained on mouse embryonic fibroblasts (MTI-GlobalStem) feeder culture in HUESM medium (20% KSR in KO-DMEM, 1% MEM-NEAA, 1% Pen–Strep, 0.1 mM 2 mercaptoethanol (Life technologies) 10 ng ml^−1 FGF2 (Biotechne), and differentiated into NPCs as previously described [Supplementary ref. 10] [Supplementary ref. 11]. In brief, hESC colonies were lifted with collagenase IV (1 mg ml^−1 in DMEM) at 37 °C for 1–2 h. Colonies lifted from the plate were transferred to a non-adherent plate (Corning) to generate embryoid bodies (EBs) for 1 day in N2/B27 medium (DMEM/F12-GlutaMAX, 1× N2 supplement, 1× B27 no RA supplement; Life). EBs were cultured in suspension in N2/B27 medium with dual-SMAD inhibitors (0.1 µM LDN193189 and 10 µM SB431542) for 7 days. […]
H9-hNPCs were pretreated (or not) for 1 h with LJ3a and treated with 1 µM reversine (#10004412, Cayman Chemicals, Ann Arbor, MI) for 24 h. […] After the BCA assay for protein quantification, samples were subject to polyacrylamide gel electrophoresis-sodium dodecyl sulfate analysis (60 min, 200 V, 12% bis–tris 12-well gels), followed by transfer to nitrocellulose membrane (60 min, 30 V). […] Protein bands were quantified using Image Studio Lite Quantification software (LI-COR®, Lincoln, NE). […]
recorded on the LJ3a sample. […]

Row | Structure (SMILES) | effect against Panobistat (LBH589)-induced cell death [1] | effect on reversine-induced Mdm-2 cleavage ([2]; 10 µM) | effect on reversine-induced Mdm-2 cleavage ([2]; submicromolar concentrations)
1 | Cc1ccc2c(c1)CCN(C(=O)[C@@H](NC(=O)[C@H](CC(=O)O)NC(=O)[C@@H](NC(=O)c1ccc3ccccc3n1)C(C)C)C(C)C)C2C(=O)NC(CC(=O)O)C(=O)COc1c(F)cccc1F (stereo partly drawn) [LJ2, Quinolin-2-carbonyl-VDV-(methyl-isoquinolyl)-D-CH2-O(2,6F2)Ph] (Quinaldoyl-VDV[ξTHIQ1CO(6-Me)]-X1) | dose-dependent inhibition of cell death |  | 
2 | CC(C)[C@H](NC(=O)c1ccc2ccccc2n1)C(=O)N[C@@H](CC(=O)O)C(=O)N[C@H](C(=O)N1CC[C@H](CC(C)(C)C)[C@@H]1C(=O)NC(CC(=O)O)C(=O)COc1c(F)cccc1F)C(C)C (stereo partly drawn) [LJ3a] |  | completely abolished | significantly prevented
